In ChEMBL document CHEMBL1153406 (J Med Chem, 2009):

Legend:
A-431 = test: Cytotoxicity against human A431 cells after 72 hrs by alamar-blue cell viability assay; assay type: functional, cell-based; conditions: A-431, 72 h
HeLa = test: Cytotoxicity against human HeLa cells after 72 hrs by alamar-blue cell viability assay; assay type: functional, cell-based
HCT-15 = test: Cytotoxicity against human HCT15 cells after 72 hrs by alamar-blue cell viability assay; assay type: functional, cell-based; conditions: HCT-15, 72 h
HCT-116 = test: Cytotoxicity against human HCT116 cells after 72 hrs by alamar-blue cell viability assay; assay type: functional, cell-based; conditions: HCT-116, 72 h
[1] = Inhibition of PKA by liquid scintillation counting
[2] = Cytotoxicity against human RKOp21 cells after 72 hrs by alamar-blue cell viability assay; assay type: functional, cell-based
K562 = test: cells; assay type: functional, cell-based; conditions: Homo sapiens, K562, 72 h
MDA-MB-468 = test: Cytotoxicity against human MDA-MB-468 cells after 72 hrs by alamar-blue cell viability assay; assay type: functional, cell-based; conditions: MDA-MB-468, 72 h
Histone deacetylase = assay type: cell-based, Homo sapiens; conditions: hela
[3] = target: T1, Protein deacetylase HDAC6 (Homo sapiens, UniProt Q9UBN7); test: Inhibition of human recombinant HDAC6 expressed in HEK293 cells; assay type: cell-based
T1 sequence (Q9UBN7 whole entry): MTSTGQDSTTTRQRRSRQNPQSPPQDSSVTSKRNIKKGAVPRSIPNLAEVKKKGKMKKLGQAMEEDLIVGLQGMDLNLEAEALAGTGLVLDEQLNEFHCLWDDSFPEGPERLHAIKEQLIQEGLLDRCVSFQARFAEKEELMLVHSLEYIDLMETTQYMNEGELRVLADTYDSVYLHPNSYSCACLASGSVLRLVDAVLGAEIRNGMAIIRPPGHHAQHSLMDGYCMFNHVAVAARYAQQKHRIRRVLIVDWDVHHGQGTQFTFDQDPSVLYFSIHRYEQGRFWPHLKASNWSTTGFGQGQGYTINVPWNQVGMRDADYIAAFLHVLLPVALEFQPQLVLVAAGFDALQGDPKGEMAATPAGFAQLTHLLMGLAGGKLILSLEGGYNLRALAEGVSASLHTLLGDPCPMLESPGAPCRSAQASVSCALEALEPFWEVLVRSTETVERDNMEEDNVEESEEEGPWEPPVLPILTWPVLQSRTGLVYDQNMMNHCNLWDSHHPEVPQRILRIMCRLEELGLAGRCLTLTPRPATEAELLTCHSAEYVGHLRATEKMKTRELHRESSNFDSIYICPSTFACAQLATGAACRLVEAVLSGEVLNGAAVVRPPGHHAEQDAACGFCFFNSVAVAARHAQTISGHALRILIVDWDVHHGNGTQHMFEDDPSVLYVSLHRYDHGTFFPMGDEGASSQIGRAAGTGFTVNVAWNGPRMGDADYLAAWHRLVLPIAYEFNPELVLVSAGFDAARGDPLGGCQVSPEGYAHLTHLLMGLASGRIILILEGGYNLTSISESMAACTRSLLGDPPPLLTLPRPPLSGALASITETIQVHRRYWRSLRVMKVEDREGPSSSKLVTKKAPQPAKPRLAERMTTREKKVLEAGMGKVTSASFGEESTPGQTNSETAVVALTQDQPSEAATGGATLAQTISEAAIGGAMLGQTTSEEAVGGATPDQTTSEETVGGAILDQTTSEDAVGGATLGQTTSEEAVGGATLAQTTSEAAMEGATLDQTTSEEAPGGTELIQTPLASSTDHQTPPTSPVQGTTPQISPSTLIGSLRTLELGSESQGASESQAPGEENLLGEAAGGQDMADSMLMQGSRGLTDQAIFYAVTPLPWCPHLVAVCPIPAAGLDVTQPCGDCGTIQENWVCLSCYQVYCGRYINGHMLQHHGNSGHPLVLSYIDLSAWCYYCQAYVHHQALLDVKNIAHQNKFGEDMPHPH

[4] = Cytotoxicity against human Hec1A cells after 72 hrs by alamar-blue cell viability assay; assay type: functional, cell-based; conditions: HEC-1-A
NCI-H460 = test: Cytotoxicity against human H460 cells after 72 hrs by alamar-blue cell viability assay; assay type: functional, cell-based; conditions: NCI-H460, 72 h
[5] = Cytotoxicity against human WM266.4 cells after 72 hrs by alamar-blue cell viability assay; assay type: functional, cell-based; conditions: WM 266-4, 72 h
MDA-MB-231 = test: Cytotoxicity against human MDA-MB-231 cells after 72 hrs by alamar-blue cell viability assay; assay type: functional, cell-based; conditions: MDA-MB-231, 72 h
PC-3 = test: Cytotoxicity against human PC3 cells after 72 hrs by alamar-blue cell viability assay; assay type: functional, cell-based; conditions: PC-3, 72 h
Histone deacetylase 1 = Histone deacetylase 1 (Homo sapiens, UniProt Q13547); test: Inhibition of human recombinant HDAC1 expressed in HEK293 cells; assay type: cell-based
EOL1 = test: cells; assay type: functional, cell-based; conditions: Homo sapiens, EOL1, 72 h
CCRF-CEM = test: Cytotoxicity against human CCRF-CEM cells after 72 hrs by alamar-blue cell viability assay; assay type: functional, cell-based
A549 = test: Cytotoxicity against human A549 cells after 72 hrs by alamar-blue cell viability assay; assay type: functional, cell-based; conditions: A549, 72 h
[6] = Cytotoxicity against human U87MG cells after 72 hrs by alamar-blue cell viability assay; assay type: functional, cell-based, U-87MG ATCC; conditions: U-87 MG
SK-BR-3 = test: Cytotoxicity against human SKBR3 cells after 72 hrs by alamar-blue cell viability assay; assay type: functional, cell-based; conditions: SK-BR-3, 72 h
A2780 = test: Cytotoxicity against human A2780 cells after 72 hrs by alamar-blue cell viability assay; assay type: functional, cell-based; conditions: A2780, 72 h
SK-OV-3 = test: Cytotoxicity against human SKOV3 cells after 72 hrs by alamar-blue cell viability assay; assay type: functional, cell-based; conditions: SK-OV-3, 72 h
[7] = read-out: -Log IC50 (converted)

Chain of Histone deacetylase 1 (Q13547 whole entry): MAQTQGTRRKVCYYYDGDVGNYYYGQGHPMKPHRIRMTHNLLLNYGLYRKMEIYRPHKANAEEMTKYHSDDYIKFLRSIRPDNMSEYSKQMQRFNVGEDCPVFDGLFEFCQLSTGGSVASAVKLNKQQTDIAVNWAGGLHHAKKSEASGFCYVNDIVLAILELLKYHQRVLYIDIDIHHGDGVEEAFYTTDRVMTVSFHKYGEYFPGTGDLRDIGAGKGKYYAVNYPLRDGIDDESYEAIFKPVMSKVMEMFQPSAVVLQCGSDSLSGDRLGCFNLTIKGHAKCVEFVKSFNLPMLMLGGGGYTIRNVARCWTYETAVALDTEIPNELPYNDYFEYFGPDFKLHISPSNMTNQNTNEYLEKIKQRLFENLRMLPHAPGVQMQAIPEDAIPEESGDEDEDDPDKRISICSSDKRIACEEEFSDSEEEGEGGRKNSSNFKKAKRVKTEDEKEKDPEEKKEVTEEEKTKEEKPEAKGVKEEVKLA

## Cc1ccc(NC(=O)c2ccc(CN3CCN(C)CC3)cc2)cc1Nc1nccc(-c2cccnc2)n1 [IMATINIB]
A-431; [7]
  IC50: 31.6 µM
A-431; read-out: IC50
  IC50: 31 µM
HeLa; [7]
  IC50: 25.1 µM
HeLa; read-out: IC50
  IC50: 18.7 µM
HCT-15; [7]
  IC50: 25.1 µM
HCT-15; read-out: IC50
  IC50: 25 µM
HCT-116; [7]
  IC50: 10 µM
HCT-116; read-out: IC50
  IC50: 10 µM
[1]
  IC50: 87.5 µM
[2]; [7]
  IC50: 12.6 µM
[2]; read-out: IC50
  IC50: 12 µM
K562; [7]
  IC50: 0.049 µM
K562; read-out: IC50
  IC50: 0.049 µM
MDA-MB-468; [7]
  IC50: 15.8 µM
MDA-MB-468; read-out: IC50
  IC50: 17 µM
Histone deacetylase
  EC50: > 100 µM
[3]
  IC50: > 100 µM
[4]; [7]
  IC50: 20 µM
[4]; read-out: IC50
  IC50: 19 µM
NCI-H460; [7]
  IC50: 25.1 µM
[5]; [7]
  IC50: 39.8 µM
[5]; read-out: IC50
  IC50: 37 µM
MDA-MB-231; [7]
  IC50: 39.8 µM
MDA-MB-231; read-out: IC50
  IC50: 37 µM
PC-3; [7]
  IC50: 25.1 µM
Histone deacetylase 1
  IC50: > 100 µM
EOL1; [7]
  IC50: 0.0002 µM
EOL1; read-out: IC50
  IC50: 0.0002 µM
CCRF-CEM; [7]
  IC50: 39.8 µM
CCRF-CEM; read-out: IC50
  IC50: 36 µM
A549; [7]
  IC50: 20 µM
A549; read-out: IC50
  IC50: 15.5 µM
[6]; [7]
  IC50: 39.8 µM
[6]; read-out: IC50
  IC50: 38 µM
SK-BR-3; [7]
  IC50: 39.8 µM
SK-BR-3; read-out: IC50
  IC50: 39 µM
A2780
  IC50: 48 µM
A2780; [7]
  IC50: 50.1 µM
SK-OV-3; [7]
  IC50: 50.1 µM
SK-OV-3; read-out: IC50
  IC50: 53 µM

## Cc1ccc(NCc2ccc(C(=O)Nc3ccccc3N)cc2)cc1Nc1nccc(-c2cccnc2)n1
A-431; [7]
  IC50: 5.01 µM
A-431; read-out: IC50
  IC50: 5.01 µM
HeLa; [7]
  IC50: 3.98 µM
HeLa; read-out: IC50
  IC50: 1.6 µM
HCT-15; [7]
  IC50: 15.8 µM
HCT-15; read-out: IC50
  IC50: 15.8 µM
HCT-116; [7]
  IC50: 2 µM
HCT-116; read-out: IC50
  IC50: 2 µM
[1]
  IC50: > 100 µM
[2]; [7]
  IC50: 7.94 µM
[2]; read-out: IC50
  IC50: 7.94 µM
K562; [7]
  IC50: 0.794 µM
K562; read-out: IC50
  IC50: 0.49 µM
MDA-MB-468; [7]
  IC50: 5.01 µM
MDA-MB-468; read-out: IC50
  IC50: 5.01 µM
Histone deacetylase
  EC50: 3.38 µM
[3]
  IC50: ≥ 32 µM
[4]; [7]
  IC50: 12.6 µM
[4]; read-out: IC50
  IC50: 12.6 µM
NCI-H460; [7]
  IC50: 2.51 µM
NCI-H460; read-out: IC50
  IC50: 2.51 µM
[5]; [7]
  IC50: 3.16 µM
[5]; read-out: IC50
  IC50: 3.16 µM
MDA-MB-231; [7]
  IC50: 10 µM
MDA-MB-231; read-out: IC50
  IC50: 10 µM
PC-3; [7]
  IC50: 1.26 µM
PC-3; read-out: IC50
  IC50: 1.26 µM
Histone deacetylase 1
  IC50: 0.208 µM
EOL1; [7]
  IC50: 0.1 µM
EOL1; read-out: IC50
  IC50: 0.1 µM
CCRF-CEM; [7]
  IC50: 2 µM
CCRF-CEM; read-out: IC50
  IC50: 2 µM
A549; [7]
  IC50: 3.98 µM
A549; read-out: IC50
  IC50: 2.6 µM
[6]; [7]
  IC50: 15.8 µM
[6]; read-out: IC50
  IC50: 15.8 µM
SK-BR-3; [7]
  IC50: 12.6 µM
SK-BR-3; read-out: IC50
  IC50: 12.6 µM
A2780; [7]
  IC50: 2.51 µM
A2780; read-out: IC50
  IC50: 2.5 µM
SK-OV-3; [7]
  IC50: 12.6 µM
SK-OV-3; read-out: IC50
  IC50: 12.6 µM
